Measurements taken from PubChem BioAssay AID2060904 (Molecular Pharmacology Branch, DTP, NCI, 2025).

System: 349418-098-R-PDC complex spheroid viability
Test: Anticancer human tumor 349418-098-R-PDC patient-derived lung adenocarcinoma cell line growth inhibition [RAS]
Settings: for IC50: curve of first compound; for viability, T/C: stronger effect = lower value
Outline: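 Agents were tested in combination matrices in half-log decrements from a top concentration at or near clinical Cmax (10 microM if undetermined). Targets were multi-cell spheroids of tumour lines plus HUVEC and MSC stromal cells.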

[1] = second compound 0.000949 µM, first compound 0.0316 µM
[2] = second compound 0.000949 µM, first compound 0.1 µM
[3] = second compound 0.000949 µM, first compound 0.316 µM
[4] = second compound 0.000949 µM, first compound 1 µM
[5] = second compound 0.000949 µM, first compound 3.16 µM
[6] = second compound 0.000949 µM, first compound 10 µM
[7] = second compound 0.003 µM, first compound 0.0316 µM
[8] = second compound 0.003 µM, first compound 0.1 µM
[9] = second compound 0.003 µM, first compound 0.316 µM
[10] = second compound 0.003 µM, first compound 1 µM
[11] = second compound 0.003 µM, first compound 3.16 µM
[12] = second compound 0.003 µM, first compound 10 µM
[13] = second compound 0.00949 µM, first compound 0.0316 µM
[14] = second compound 0.00949 µM, first compound 0.1 µM
[15] = second compound 0.00949 µM, first compound 0.316 µM
[16] = second compound 0.00949 µM, first compound 1 µM
[17] = second compound 0.00949 µM, first compound 3.16 µM
[18] = second compound 0.00949 µM, first compound 10 µM
[19] = second compound 0.03 µM, first compound 0.0316 µM
[20] = second compound 0.03 µM, first compound 0.1 µM
[21] = second compound 0.03 µM, first compound 0.316 µM
[22] = second compound 0.03 µM, first compound 1 µM
[23] = second compound 0.03 µM, first compound 3.16 µM
[24] = second compound 0.03 µM, first compound 10 µM
[25] = second compound 0.0949 µM, first compound 0.0316 µM
[26] = second compound 0.0949 µM, first compound 0.1 µM
[27] = second compound 0.0949 µM, first compound 0.316 µM
[28] = second compound 0.0949 µM, first compound 1 µM
[29] = second compound 0.0949 µM, first compound 3.16 µM
[30] = second compound 0.0949 µM, first compound 10 µM
[31] = second compound 0.3 µM, first compound 0.0316 µM
[32] = second compound 0.3 µM, first compound 0.1 µM
[33] = second compound 0.3 µM, first compound 0.316 µM
[34] = second compound 0.3 µM, first compound 1 µM
[35] = second compound 0.3 µM, first compound 3.16 µM
[36] = second compound 0.3 µM, first compound 10 µM
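Note: spheroids exposed to compound for seven days before viability readout.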

In the case of `Cc1nc(N2CCC3(CC2)COC(C)C3N)c(CO)nc1Sc1ccnc(N)c1Cl` (centres undefined) + CCn1c(-c2cc(N3CCN(C)CC3)cnc2C(C)OC)c2c3cc(ccc31)-c1csc(n1)CC(NC(=O)C1CC1C)C(=O)N1CCCC(N1)C(=O)OCC(C)(C)C2, the IC50 (second compound 0.000949 µM) is reported as > 10 µM, the IC50 (second compound 0.003 µM) is reported as > 10 µM and the IC50 (second compound 0.00949 µM) is reported as > 10 µM. The IC50 (second compound 0.03 µM) was > 10 µM, the IC50 (second compound 0.0949 µM) was > 10 µM and the IC50 (second compound 0.3 µM) was > 10 µM. It also gave a viability, T/C [1] of 90.4%, a viability, T/C [2] of 99.3% and a viability, T/C [3] of 88.4%. For the same compound, the viability, T/C [4] was 102%, the viability, T/C [5] was 97.2% and the viability, T/C [6] was 95.7%. It also gave a viability, T/C [7] of 114%, a viability, T/C [8] of 103% and a viability, T/C [9] of 104%. The viability, T/C [10] was 103%, the viability, T/C [11] was 100% and the viability, T/C [12] was 95.8%. It also gave a viability, T/C [13] of 111%, a viability, T/C [14] of 89.2% and a viability, T/C [15] of 97.1%. It also gave a viability, T/C [16] of 112%, a viability, T/C [17] of 114% and a viability, T/C [18] of 115%. For the same compound, the viability, T/C [19] was 96%, the viability, T/C [20] was 106% and the viability, T/C [21] was 105%. For the same compound, the viability, T/C [22] was 99.1%, the viability, T/C [23] was 106% and the viability, T/C [24] was 90.6%. It also gave a viability, T/C [25] of 104%, a viability, T/C [26] of 114% and a viability, T/C [27] of 79%. It also gave a viability, T/C [28] of 92%, a viability, T/C [29] of 102% and a viability, T/C [30] of 104%. The viability, T/C [31] was 109%, the viability, T/C [32] was 106% and the viability, T/C [33] was 100%. For the same compound, the viability, T/C [34] was 107%, the viability, T/C [35] was 115% and the viability, T/C [36] was 115%.

`NC1c2ccccc2OC12CCN(c1cnc3c(N4CCCc5ncccc54)n[nH]c3n1)CC2` (centres undefined) + CCn1c(-c2cc(N3CCN(C)CC3)cnc2C(C)OC)c2c3cc(ccc31)-c1csc(n1)CC(NC(=O)C1CC1C)C(=O)N1CCCC(N1)C(=O)OCC(C)(C)C2 was tested, and the IC50 (second compound 0.000949 µM) was > 10 µM, the IC50 (second compound 0.003 µM) was > 10 µM and the IC50 (second compound 0.00949 µM) was > 10 µM. The IC50 (second compound 0.03 µM) was > 10 µM, the IC50 (second compound 0.0949 µM) was > 10 µM and the IC50 (second compound 0.3 µM) was > 10 µM. It also gave a viability, T/C [1] of 91.7%, a viability, T/C [2] of 98.8% and a viability, T/C [3] of 111%. The viability, T/C [4] was 90.2%, the viability, T/C [5] was 86.5% and the viability, T/C [6] was 76.8%. It also gave a viability, T/C [7] of 98.1%, a viability, T/C [8] of 120% and a viability, T/C [9] of 105%. For the same compound, the viability, T/C [10] was 102%, the viability, T/C [11] was 95.6% and the viability, T/C [12] was 76.8%. The viability, T/C [13] was 116%, the viability, T/C [14] was 102% and the viability, T/C [15] was 97.1%. For the same compound, the viability, T/C [16] was 98%, the viability, T/C [17] was 90.7% and the viability, T/C [18] was 73.9%. For the same compound, the viability, T/C [19] was 113%, the viability, T/C [20] was 102% and the viability, T/C [21] was 111%. It also gave a viability, T/C [22] of 107%, a viability, T/C [23] of 102% and a viability, T/C [24] of 72.3%. It also gave a viability, T/C [25] of 114%, a viability, T/C [26] of 88% and a viability, T/C [27] of 110%. The viability, T/C [28] was 107%, the viability, T/C [29] was 116% and the viability, T/C [30] was 78.5%. For the same compound, the viability, T/C [31] was 103%, the viability, T/C [32] was 105% and the viability, T/C [33] was 113%. It also gave a viability, T/C [34] of 93.9%, a viability, T/C [35] of 104% and a viability, T/C [36] of 64.8%.
